Like-named read-outs stand apart in the source and are kept apart here.
Key:
[1] = system: B/Florida/04/2006; assay: Antiviral activity (drug efficacy evaluation by concentration) against B/Florida/04/2006; type: cell-based, B type influenza virus
[2] = system: A/Perth/16/2009 (H3N2); assay: Antiviral activity (drug efficacy evaluation by concentration) against A/Perth/16/2009 (H3N2); type: cell-based, A type influenza virus; settings: Influenza A virus
[3] = in vitro
[4] = system: A/California/07/2009 (H1N1); assay: Antiviral activity (drug efficacy evaluation by concentration) against A/California/07/2009 (H1N1); type: cell-based, A type influenza virus; settings: Influenza A virus
[5] = read-out: EC50 B/Florida/04/2006, B/Florida/04/2006
[6] = H3N2, A/Perth/16/2009 (H3N2), read-out: EC50 A/Perth/16/2009 (H3N2)
[7] = CC50 B/Florida/04/2006, cytotoxicity in the B/Florida/04/2006 assay
[8] = H1N1, A/California/07/2009 (H1N1), read-out: EC50 A/California/07/2009 (H1N1)
[9] = CC50, third EC50/CC50 column pair (c7), beside the EC50 of c6

Structure (SMILES) | EC50 [1, 5] [µM] | EC50 [2, 6] [µM] | CC50 [3, 7] [µM] | melting point [°C] | EC50 [4, 8] [µM] | EC50 [1] [µM] | CC50 ([3]; CC50, beside the EC50 of c2) [µM] | CC50 ([3]; CC50, beside the EC50 of c4) [µM] | CC50 [3, 9] [µM] | EC50 ([4]; H1N1, read-out: EC50) [µM] | EC50 ([2]; H3N2, read-out: EC50) [µM]
Cc1nn(Cc2nnc(SCc3ccncc3-c3ccccc3)o2)c(C)c1Br [Compound 16, 2-((4-bromo-3,5-dimethyl-1H-pyrazol-1-yl)methyl)-5-(((3-phenylpyridin-4-yl)methyl)thio)-1,3,4-oxadiazole] | > 50 | > 50 | > 50 | – | – | – | – | – | – | – | –
CCn1c(Cn2nc(C)c(Br)c2C)nnc1SCc1ccccc1-c1ccccc1 [Compound 24, 3-(([1,1′-biphenyl]-2-ylmethyl)thio)-5-((4-bromo-3,5-dimethyl-1H-pyrazol-1-yl)methyl)-4-ethyl-4H-1,2,4-triazole] | > 50 | > 50 | > 50 | 137.8 | – | – | – | – | – | – | –
Cc1cccc(C)c1CSc1nnc(Cn2nc(C)c(Br)c2C)o1 [Compound 40, 2-((4-bromo-3,5-dimethyl-1H-pyrazol-1-yl)methyl)-5-((2,6-dimethylbenzyl)thio)-1,3,4-oxadiazole] | – | – | > 50 | 106.3 | > 50 | – | – | – | – | – | –
c1ccc(-c2nnc(SCc3ccccc3-c3ccccc3)o2)cc1 [Compound 43, 2-(([1,1′-biphenyl]-2-ylmethyl)thio)-5-phenyl-1,3,4-oxadiazole] | – | > 50 | > 50 | – | > 50 | – | – | – | – | – | –
Brc1ccc(NCc2nnc(SCc3ccccc3-c3ccccc3)o2)cc1 [Compound 47, N-((5-(([1,1′-biphenyl]-2-ylmethyl)thio)-1,3,4-oxadiazol-2-yl)methyl)-4-bromoaniline] | > 50 | – | > 50 | – | > 50 | – | – | – | – | – | –
O=C(c1cccc(-c2ccccc2)c1)c1nnc(Cc2ccc(Br)cc2)o1 [Compound 69, [1,1′-biphenyl]-3-yl(5-(4-bromobenzyl)-1,3,4-oxadiazol-2-yl)methanone] | – | 49.3 | > 50 | 166.4 | > 50 | – | – | – | – | – | –
O=C(Nc1ccc(Br)cc1)c1nnc(SCc2ccccc2-c2ccccc2)o1 [Compound 72, 5-(([1,1′-biphenyl]-2-ylmethyl)thio)-N-(4-bromophenyl)-1,3,4-oxadiazole-2-carboxamide] | – | 23.5 | 25 | – | 0.73 | – | – | – | – | – | –
CC(C)c1ccccc1/C=C/c1nnc(Cc2ccc(Br)cc2)o1 [Compound 82, (E)-2-(4-bromobenzyl)-5-(2-isopropylstyryl)-1,3,4-oxadiazole] | – | – | – | 91.6 | – | > 50 | > 50 | > 50 | > 50 | – | –
Fc1cc(Nc2nnc(/C=C/c3ccccc3Br)o2)ccc1Br [Compound 88, (E)-N-(4-bromo-3-fluorophenyl)-5-(2-bromostyryl)-1,3,4-oxadiazol-2-amine] | – | – | – | 225.1 | – | – | > 50 | > 50 | > 50 | > 50 | > 50
Cc1ccccc1CCc1nnc(Nc2ccc(Br)cc2)o1 [Compound 89, N-(4-bromophenyl)-5-(2-methylphenethyl)-1,3,4-oxadiazol-2-amine] | – | – | – | 153.5 | – | – | > 50 | > 50 | > 50 | > 50 | 48.4
Cc1cc(Nc2nnc(CCc3ccccc3C)o2)ccc1Br [Compound 90, N-(4-bromo-3-methylphenyl)-5-(2-methylphenethyl)-1,3,4-oxadiazol-2-amine] | – | – | – | 122.7 | – | – | > 50 | > 50 | > 50 | > 50 | > 50
CC(C)c1ccccc1/C=C/c1nnc(Nc2ccc(Br)cc2)o1 [Compound 117, (E)-N-(4-bromophenyl)-5-(2-isopropylstyryl)-1,3,4-oxadiazol-2-amine] | – | – | – | 225.6 | – | – | > 50 | > 50 | – | 31.4 | 43.5
Brc1ccc(Nc2nnc(/C=C/c3ccccc3-c3ccccc3)o2)cc1 [Compound 124, (E)-5-(2-([1,1′-biphenyl]-2-yl)vinyl)-N-(4-bromophenyl)-1,3,4-oxadiazol-2-amine] | – | – | – | 239.3 | – | – | > 50 | > 50 | > 50 | – | > 50
Brc1ccc(Nc2nnc(/C=C/c3ccccc3Oc3ccccc3)o2)cc1 [Compound 125, (E)-N-(4-bromophenyl)-5-(2-phenoxystyryl)-1,3,4-oxadiazol-2-amine] | – | – | – | – | – | – | > 50 | > 50 | > 50 | 36.7 | > 50
Cc1ccccc1CC1(c2nnc(Cc3ccc(Br)cc3)o2)CC1 [Compound 129, 2-(4-bromobenzyl)-5-(1-(2-methylbenzyl)cyclopropyl)-1,3,4-oxadiazole] | – | – | – | 72.2 | – | – | > 50 | > 50 | > 50 | – | 6.13
CC(C)c1ccccc1/C=C/c1nnc(Cc2ccc(F)c(Cl)c2)o1 [Compound 131, 2-(3-chloro-4-fluorobenzyl)-5-(2-isopropylstyryl)-1,3,4-oxadiazole] | – | – | – | – | – | 1.02 | – | – | – | 0.927 | 0.835
Cc1cccc(C)c1/C=C/c1nnc(Cc2ccc(Br)cc2)o1 [Compound 134, 2-(4-bromobenzyl)-5-(2,6-dimethylstyryl)-1,3,4-oxadiazole] | – | – | – | – | – | – | > 50 | > 50 | > 50 | > 50 | > 50
CC(=Cc1ccccc1C)c1nnc(Cc2ccc(Br)cc2)o1 [Compound 138, 2-(4-bromobenzyl)-5-(1-(o-tolyl)prop-1-en-2-yl)-1,3,4-oxadiazole] | – | – | – | – | – | – | > 50 | > 50 | > 50 | 0.161 | –
Cc1ccc(Cc2nnc(/C=C/c3ccccc3C(C)C)o2)cc1Br [Compound 145, 2-(3-bromo-4-methylbenzyl)-5-(2-isopropylstyryl)-1,3,4-oxadiazole] | – | – | – | 111.2 | – | > 50 | > 50 | > 50 | > 50 | – | 49.1
Cc1cccc(/C=C/c2nnc(Cc3ccc(Br)cc3)o2)c1C [Compound 150, 2-(4-bromobenzyl)-5-(2,3-dimethylstyryl)-1,3,4-oxadiazole] | – | – | – | 126.9 | – | – | > 50 | > 50 | > 50 | – | > 50
FC(F)(F)c1cccc(/C=C/c2nnc(Cc3ccc(Br)cc3)o2)c1Cl [Compound 152, 2-(4-bromobenzyl)-5-(2-chloro-3-(trifluoromethyl)styryl)-1,3,4-oxadiazole] | – | – | – | 118.9 | – | > 50 | > 50 | > 50 | > 50 | – | > 50
CC(C)c1ccc(/C=C/c2nnc(Cc3ccc(Br)cc3)o2)cc1 [Compound 154, 2-(4-bromobenzyl)-5-(4-isopropylstyryl)-1,3,4-oxadiazole] | – | – | – | 139.8 | – | > 50 | > 50 | > 50 | > 50 | – | –
Fc1ccc(/C=C/c2nnc(Cc3ccc(F)c(Cl)c3)o2)c(Cl)c1 [Compound 159, (E)-2-(3-chloro-4-fluorobenzyl)-5-(2-chloro-4-fluorostyryl)-1,3,4-oxadiazole] | – | – | – | 142.2 | – | – | > 50 | > 50 | > 50 | > 50 | 39.7
Fc1ccc(/C=C/c2nnc(Nc3ccc(Br)c(F)c3)o2)c(Cl)c1 [Compound 160, (E)-N-(4-bromo-3-fluorophenyl)-5-(2-chloro-4-fluorostyryl)-1,3,4-oxadiazol-2-amine] | – | – | – | 195.7 | – | – | > 50 | > 50 | > 50 | > 50 | > 50
Fc1ccc(/C=C/c2nnc(Cc3cccc(Cl)c3)o2)c(Cl)c1 [Compound 179, (E)-2-(2-chloro-4-fluorostyryl)-5-(3-chlorobenzyl)-1,3,4-oxadiazole] | – | – | – | 104 | – | – | > 50 | > 50 | > 50 | 0.632 | –
COc1cccc(Cc2nnc(/C=C/c3ccc(F)cc3Cl)o2)c1 [Compound 202, (E)-2-(2-chloro-4-fluorostyryl)-5-(3-methoxybenzyl)-1,3,4-oxadiazole] | – | – | – | 131.7 | – | > 50 | > 50 | > 50 | > 50 | – | > 50
Cc1ncccc1/C=C/c1nnc(Cc2cccc(Br)c2)o1 [Compound 204, (E)-2-(3-bromobenzyl)-5-(2-(2-methylpyridin-3-yl)vinyl)-1,3,4-oxadiazole] | – | – | – | – | – | 2.5 | > 50 | > 50 | > 50 | – | –
Fc1ccc(/C=C/c2nnc(Cc3cc(Cl)ccn3)o2)c(Cl)c1 [Compound 206, (E)-2-(2-chloro-4-fluorostyryl)-5-((4-chloropyridin-2-yl)methyl)-1,3,4-oxadiazole] | – | – | – | – | – | 2.26 | > 50 | > 50 | > 50 | – | 1.28
Fc1ccc(/C=C/c2nnc(Cc3ccc(Cl)c(Cl)c3)o2)c(Cl)c1 [Compound 208, 2-(2-chloro-4-fluorostyryl)-5-(3,4-dichlorobenzyl)-1,3,4-oxadiazole] | – | – | – | 179.9 | – | 1.19 | > 50 | > 50 | > 50 | – | 0.72

— US11149033B2, “Heteroaryl compound, enantiomer, diastereomer or pharmaceutically acceptable salt thereof, and antiviral composition containing same as active ingredient” (priority 2016, dated 2021)
